Source: patent US8524716B2, “Macrocyclic indoles as hepatitis C virus inhibitors” (priority 2007, dated 2013)
Where two headings read alike, the source gives them in different places.

Legend:
[1] = tested on: HCV replicons (NS3-NS5B regions of HCV type 1b) in Huh-Luc cells; test: HCV replicon assay in Huh-7 luc/neo (Huh-Luc) cells, luciferase readout; assay type: cell-based; conditions: three days incubation, luciferase activity
Excerpt: The compounds of formula (I) were examined for activity in the inhibition of HCV RNA replication in a cellular assay. […] The cellular assay was based on a bicistronic expression construct, as described by Lohmann et al. (1999) Science vol. 285 pp. 110-113 with modifications described by Krieger et al. (2001) Journal of Virology 75: 4614-4624, in a multi-target screening strategy. In essence, the method was as follows.
The assay utilized the stably transfected cell line Huh-7 luc/neo (hereafter referred to as Huh-Luc). This cell line harbors an RNA encoding a bicistronic expression construct comprising the wild type NS3-NS5B regions of HCV type 1b translated from an Internal Ribosome Entry Site (IRES) from encephalomyocarditis virus (EMCV), preceded by a reporter portion (firefly luciferase), and a selectable marker portion (neo^R, neomycine phosphotransferase). The construct is bordered by 5′ and 3′ NTRs (non-translated regions) from HCV type 1b. Continued culture of the replicon cells in the presence of G418 (neo^R) is dependent on the replication of the HCV RNA. The stably transfected replicon cells that express HCV RNA, which replicates autonomously and to high levels, encoding inter alia luciferase, were used for screening the antiviral compounds.
The replicon cells were plated in 384 well plates in the presence of the test and control compounds which were added in various concentrations. Following an incubation of three days, HCV replication was measured by assaying luciferase activity (using standard luciferase assay substrates and reagents and a Perkin Elmer ViewLux™ ultraHTS microplate imager). […] The inhibitory activity of the compound on luciferase activity was monitored on the Huh-Luc cells, enabling a dose-response curve for each test compound. EC50 values were then calculated, which value represents the amount of the compound required to decrease the level of detected luciferase activity by 50%, or more specifically, the ability of the genetically linked HCV replicon RNA to replicate.

HCV NS5B = HCV NS5B (Hepatitis C virus genotype 1b (strain HC-J4), UniProt O92972); test: biochemical; assay type: biochemical
Chain of HCV NS5B (O92972 2420-3010 limits assumed): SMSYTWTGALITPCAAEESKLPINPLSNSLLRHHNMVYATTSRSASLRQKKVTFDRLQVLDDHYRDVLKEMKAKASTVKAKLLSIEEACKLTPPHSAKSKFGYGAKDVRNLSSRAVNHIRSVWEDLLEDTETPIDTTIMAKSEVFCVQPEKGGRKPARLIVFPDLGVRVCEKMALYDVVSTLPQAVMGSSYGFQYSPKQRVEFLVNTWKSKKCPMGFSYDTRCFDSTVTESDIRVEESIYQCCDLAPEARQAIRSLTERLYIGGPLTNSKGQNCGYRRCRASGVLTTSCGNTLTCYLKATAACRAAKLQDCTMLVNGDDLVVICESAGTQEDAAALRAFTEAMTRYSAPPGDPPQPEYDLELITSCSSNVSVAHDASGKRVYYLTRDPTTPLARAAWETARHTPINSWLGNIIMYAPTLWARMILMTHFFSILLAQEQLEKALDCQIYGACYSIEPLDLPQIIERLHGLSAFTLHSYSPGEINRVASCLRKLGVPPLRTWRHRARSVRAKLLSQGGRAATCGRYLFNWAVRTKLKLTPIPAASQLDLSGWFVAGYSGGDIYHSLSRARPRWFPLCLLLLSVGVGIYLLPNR
Experimental: The cDNA encoding NS5B amino acid 1-570 (HC-J4, genotype 1b, pCV-J4L6S, genebank accession number AF054247) was subcloned into the Nhe I and Xho I restriction sites of pET-21b. Expression of the subsequent His-tagged C-terminal 21 amino acid deleted NS5B was performed as follows:
The NS5B expression construct was transformed into E. coli BL21(DE3) (Novagen, Madison, Wis.). Five milliliters of LB-medium supplemented with ampicillin (50 μg/mL) was inoculated with one colony. When the pre-culture reached an optical density of 0.6 measured at 600 nm, it was transferred to fresh LB-medium supplemented with ampicillin, at a ratio of 1:200. Cells were grown to an optical density at 600 nm of 0.6, after which the expression cultures were shifted to a growth temperature of 20° C. following induction with isopropyl-1-thio-β-D-galactopyranoside and MgCl2 at a final concentration of 0.4 mM and 10 μM, respectively. After ten hours of induction, cells were harvested by centrifugation and resuspended in 20 mM Tris-HCl, pH 7.5, 300 mM NaCl, 10% glycerol, 0.1% NP40, 4 mM MgCl2, 5 mM DTT supplemented with EDTA-free Complete Protease Inhibitor (Roche, Basel, Switzerland). Cell suspensions were disrupted by sonication and incubated with 10-15 mg/L of DNase I (Roche, Basel, Switzerland) for 30 minutes. Cell debris was removed through ultracentrifugation at 30,000×g for 1 hour and clarified cell lysate was flash frozen and stored at −80° C. prior to purification.
Clarified cell lysate was thawed and subsequently loaded onto a 5 mL pre-packed HisTrap FF column equilibrated with 25 mM HEPES, pH 7.5, 500 mM NaCl, 10% glycerol and 5 mM DTT. Proteins were eluted with 500 mM imidazole at a flow rate of 1 mL/min. Fractions containing the protein of interest were applied onto a pre-packed 26/10 HiPrep Desalting Column equilibrated with 25 mM HEPES, pH 7.5, 150 mM NaCl, 10% glycerol and 5 mM DTT. The buffer-exchanged NS5B peak was then applied onto a 20 mL Poly-U Sepharose column. Protein was eluted with an increasing salt gradient and fractions collected. Protein purity was assessed on Nu-PAGE pre-cast gels (Invitrogen, Carlsbad, Calif.). Purified NS5B samples were concentrated using Centri-Prep concentrators (Millipore, Billerica, Mass., USA) and protein concentrations were determined by Bradford assay (Pierce, Rockford, Ill., USA).
Measurement of HCV NS5B polymerization activity was performed by evaluating the amount of radio labeled GTP incorporated by the enzyme in a newly synthesized RNA using heteropolymeric RNA template/primer. The high-throughput RNA dependent RNA polymerase (RdRp) assay was carried out in 384-well plates using 100 nM enzyme, 300 nM 5′-biotinylated oligo(rG13)/poly(rC) primer-template, 600 nM of GTP, and 0.1 μCi of [^3H]GTP in 25 mM Tris-HCl, pH 7.5, 5 mM MgCl2, 25 mM KCl, 17 mM NaCl and 3 mM of dithiothreitol (DTT). Test compounds were dissolved in DMSO. The test compounds were added to the preformed polymerase-template complex, and incubated at room temperature for 15 min before the addition of nucleoside triphosphates (NTP). The 30 μl reaction was terminated after 2 h at 25° C. upon addition of 30 μl A PVT-SPA beads (Amersham Biosciences RPNQ0009, 5 mg/ml in 0.5 M EDTA).

[2] = 100 nM enzyme, [3H]GTP incorporation, 2 h at 25° C., read-out: IC50 (μM) Enzymatic assay

How did the EC50 ([1]; Hepatitis C virus, Huh-7, 72 h) turn out when `CS(=O)(=O)N1CCN(c2ccc(N3CCCC3=O)cc2COc2ccc(-c3c(C4CCCCC4)c4ccc5cc4n3CC(=O)NCC/C=C\CCNC5=O)c(F)c2)CC1` [Cpd 15, 17-Cyclohexyl-18-[2-fluoro-4-[2-(4-methanesulfonyl-piperazin-1-yl)-5-(2-oxo-pyrrolidin-1-yl)-benzyloxy]-phenyl]-1,4,11-triaza-tricyclo[11.5.2.0^16,19]icosa-7,13(20),14,16(19),17-pentaene-3,12-dione] was run?
The EC50 was 0.27 µM.

What about the IC50 (HCV NS5B; [2]) of the same compound?
The IC50 was 1.58 µM.

Which results are given for `Cc1nc(C)c(-c2ccc3cc(-c4c(C5CCCCC5)c5ccc6cc5n4CC(=O)NCC/C=C\CS(=O)(=O)NC6=O)ccc3n2)s1` [Cpd 18, 17-cyclohexyl-18-[2-(2,4-dimethyl-thiazol-5-yl)-quinolin-6-yl]-10,10-dioxo-10λ^6-thia-1,4,11-triaza-tricyclo[11.5.2.0^16,19]icosa-7,13(20),14,16(19),17-pentaene-3,12-dione]?
EC50 ([1]; Hepatitis C virus, Huh-7, 72 h): 12.8 µM; IC50 (HCV NS5B; [2]): 0.04 µM

“17-Cyclohexyl-18-furan-3-yl-9-methyl-10,10-dioxo-10λ^6-thia-1,4,9,11-tetraaza-tricyclo[11.5.2.016,19]icosa-13(20),14,16(19),17-tetraene-3,12-dione [Cpd 28]” was tested. Which EC50 [1] did it give?
The EC50 was 1.58 µM.

How did the EC50 ([1]; Hepatitis C virus, Huh-7, 72 h) turn out when `CN1CCCCCNC(=O)Cn2c(-c3ccoc3)c(C3CCCCC3)c3ccc(cc32)C(=O)NS1(=O)=O` [Cpd 30, 18-Cyclohexyl-19-furan-3-yl-10-methyl-11,11-dioxo-11λ^6-thia-1,4,10,12-tetraaza-tricyclo[12.5.2.017,20]henicosa-14(21),15,17(20),18-tetraene-3,13-dione] was run?
The EC50 was 0.79 µM.

For `CN1C/C=C\CNC(=O)Cn2c(-c3ccc(OCc4cc(N5CCCC5=O)ccc4N4CCN(S(C)(=O)=O)CC4)cc3F)c(C3CCCCC3)c3ccc(cc32)C(=O)NS1(=O)=O` [Cpd 19, 17-cyclohexyl-18-(2-fluoro-4-(2-(4-methanesulfonyl-piperazin-1-yl)-5-(2-oxo-pyrrolidin-1-yl)-benzyloxy)-phenyl)-9-methyl-10,10-dioxo-10λ^6-thia-1,4,9,11-tetraaza-tricyclo[11.5.2.0^16,19]icosa-6,13(20),14,16(19),17-pentaene-3,12-dione], which EC50 ([1]; Hepatitis C virus, Huh-7, 72 h) is on record?
Its EC50 is 2.36 µM.

And the IC50 (HCV NS5B; [2])?
The IC50 was 0.042 µM.

For `COc1ccc(-c2c(C3CCCCC3)c3ccc4cc3n2CC(=O)NCCN(C)CCNS(=O)(=O)NC4=O)cc1` [Cpd 27, 18-Cyclohexyl-19-(4-methoxy-phenyl)-7-methyl-11,11-dioxo-11λ^6-thia-1,4,7,10,12-pentaaza-tricyclo[12.5.2.017,20]henicosa-14(21),15,17(20),18-tetraene-3,13-dione], which EC50 ([1]; Hepatitis C virus, Huh-7, 72 h) is on record?
Its EC50 is 3.47 µM.

And the IC50 (HCV NS5B; [2])?
The IC50 was 0.44 µM.

Which EC50 ([1]; Hepatitis C virus, Huh-7, 72 h) does the source give for `COc1ccc(-c2ccc(Cl)cc2)c(COc2ccc(-c3c(C4CCCCC4)c4ccc5cc4n3CC(=O)NCCCCCCNC5=O)cc2)c1` [Cpd 10, 18-[4-(4′-chloro-4-methoxybiphenyl-2-ylmethoxy)phenyl]-17-cyclohexyl-1,4,11-triazatricyclo[11.5.2.0^16,19]icosa-13(20),14,16(19),17-tetraene-3,12-dione] here?
Its EC50 is greater than 32 µM.

What about the IC50 (HCV NS5B) of the same compound?
Its IC50 is 6.9 µM.

Which EC50 ([1]; Hepatitis C virus, Huh-7, 72 h) does the source give for `O=C1Cn2c(-c3ccoc3)c(C3CCCCC3)c3ccc(cc32)C(=O)NCCCCCCN1` [Cpd 2, 17-Cyclohexyl-18-(furan-3-yl)-1,4,11-triaza-tricyclo[11.5.2.0^16,19]icosa-13(20),14,16(19),17-tetraene-3,12-dione] here?
The EC50 was 4.3 µM.

What about the IC50 (HCV NS5B; [2]) of the same compound?
Its IC50 is 9.5 µM.

Which results are given for `CN1CCCCCNC(=O)Cn2c(-c3ccc(Cl)cc3)c(C3CCCCC3)c3ccc(cc32)C(=O)NS1(=O)=O` [Cpd 21, 19-(4-Chloro-phenyl)-18-cyclohexyl-10-methyl-11,11-dioxo-11λ^6-thia-1,4,10,12-tetraaza-tricyclo[12.5.2.017,20]henicosa-14(21),15,17(20),18-tetraene-3,13-dione]?
EC50 ([1]; Hepatitis C virus, Huh-7, 72 h): 0.59 µM; IC50 (HCV NS5B; [2]): 0.19 µM

How did the EC50 ([1]; Hepatitis C virus, Huh-7, 72 h) turn out when `CN1C/C=C\CN(C)S(=O)(=O)NC(=O)c2ccc3c(C4CCCCC4)c(-c4ccc(Cl)cc4)n(c3c2)CC1=O` [Cpd 23, 18-(4-Chloro-phenyl)-17-cyclohexyl-4,9-dimethyl-10,10-dioxo-10λ^6-thia-1,4,9,11-tetraaza-tricyclo[11.5.2.016,19]icosa-6,13(20),14,16(19),17-pentaene-3,12-dione] was run?
The EC50 was 1.08 µM.

What about the IC50 (HCV NS5B; [2]) of the same compound?
Its IC50 is 0.45 µM.

For `O=C1Cn2c(-c3ccoc3)c(C3CCCCC3)c3ccc(cc32)C(=O)NCC/C=C\CCN1` [Cpd 1, 17-cyclohexyl-18-(furan-3-yl)-1,4,11-triaza-tricyclo-[11.5.2.0^16,19]icosa-7,13(20),14,16(19),17-pentaene-3,12-dione], which EC50 ([1]; Hepatitis C virus, Huh-7, 72 h) is on record?
The EC50 was 3.4 µM.

What about the IC50 (HCV NS5B; [2]) of the same compound?
Its IC50 is 2.2 µM.

`Cc1nc(C)c(-c2ccc3cc(-c4c(C5CCCCC5)c5ccc6cc5n4CC(=O)NCC/C=C\CCNC6=O)ccc3n2)s1` [Cpd 17, 17-Cyclohexyl-18-[2-(2,4-dimethyl-thiazol-5-yl)-quinolin-6-yl]-1,4,11-triaza-tricyclo[11.5.2.0^16,18]icosa-7,13(20),14,16(19),17-pentaene-3,12-dione] was tested. Which EC50 ([1]; Hepatitis C virus, Huh-7, 72 h) did it give?
Its EC50 is 5.39 µM.

What about the IC50 (HCV NS5B; [2]) of the same compound?
The IC50 was 2.7 µM.

`CN1CC=CCCNC(=O)Cn2c(-c3ccoc3)c(C3CCCCC3)c3ccc(cc32)C(=O)NS1(=O)=O` [Cpd 29, 18-Cyclohexyl-19-furan-3-yl-10-methyl-11,11-dioxo-11λ^6-thia-1,4,10,12-tetraaza-tricyclo[12.5.2.017,20]henicosa-7,14(21),15,17(20),18-pentaene-3,13-dione] was tested. Which EC50 ([1]; Hepatitis C virus, Huh-7, 72 h) did it give?
The EC50 was 0.65 µM.

And the IC50 (HCV NS5B; [2])?
Its IC50 is 0.051 µM.

How did the EC50 ([1]; Hepatitis C virus, Huh-7, 72 h) turn out when `CN1C/C=C\CCNC(=O)Cn2c(-c3ccc(Cl)cc3)c(C3CCCCC3)c3ccc(cc32)C(=O)NS1(=O)=O` [Cpd 20, 19-(4-Chloro-phenyl)-18-cyclohexyl-10-methyl-11,11-dioxo-11λ^6-thia-1,4,10,12-tetraaza-tricyclo[12.5.2.017,20]henicosa-7,14(21),15,17(20),18-pentaene-3,13-dione] was run?
The EC50 was 0.61 µM.

For `CN1CCCCCNC(=O)Cn2c(-c3ccccc3)c(C3CCCCC3)c3ccc(cc32)C(=O)NS1(=O)=O` [Cpd 22, 18-Cyclohexyl-10-methyl-11,11-dioxo-19-phenyl-11λ^6-thia-1,4,10,12-tetraaza-tricyclo[12.5.2.017,20]henicosa-14(21),15,17(20),18-tetraene-3,13-dione], which EC50 ([1]; Hepatitis C virus, Huh-7, 72 h) is on record?
The EC50 was 0.43 µM.
